SMILES strings stand for the structures.

T1 sequence (Q5S007 whole entry): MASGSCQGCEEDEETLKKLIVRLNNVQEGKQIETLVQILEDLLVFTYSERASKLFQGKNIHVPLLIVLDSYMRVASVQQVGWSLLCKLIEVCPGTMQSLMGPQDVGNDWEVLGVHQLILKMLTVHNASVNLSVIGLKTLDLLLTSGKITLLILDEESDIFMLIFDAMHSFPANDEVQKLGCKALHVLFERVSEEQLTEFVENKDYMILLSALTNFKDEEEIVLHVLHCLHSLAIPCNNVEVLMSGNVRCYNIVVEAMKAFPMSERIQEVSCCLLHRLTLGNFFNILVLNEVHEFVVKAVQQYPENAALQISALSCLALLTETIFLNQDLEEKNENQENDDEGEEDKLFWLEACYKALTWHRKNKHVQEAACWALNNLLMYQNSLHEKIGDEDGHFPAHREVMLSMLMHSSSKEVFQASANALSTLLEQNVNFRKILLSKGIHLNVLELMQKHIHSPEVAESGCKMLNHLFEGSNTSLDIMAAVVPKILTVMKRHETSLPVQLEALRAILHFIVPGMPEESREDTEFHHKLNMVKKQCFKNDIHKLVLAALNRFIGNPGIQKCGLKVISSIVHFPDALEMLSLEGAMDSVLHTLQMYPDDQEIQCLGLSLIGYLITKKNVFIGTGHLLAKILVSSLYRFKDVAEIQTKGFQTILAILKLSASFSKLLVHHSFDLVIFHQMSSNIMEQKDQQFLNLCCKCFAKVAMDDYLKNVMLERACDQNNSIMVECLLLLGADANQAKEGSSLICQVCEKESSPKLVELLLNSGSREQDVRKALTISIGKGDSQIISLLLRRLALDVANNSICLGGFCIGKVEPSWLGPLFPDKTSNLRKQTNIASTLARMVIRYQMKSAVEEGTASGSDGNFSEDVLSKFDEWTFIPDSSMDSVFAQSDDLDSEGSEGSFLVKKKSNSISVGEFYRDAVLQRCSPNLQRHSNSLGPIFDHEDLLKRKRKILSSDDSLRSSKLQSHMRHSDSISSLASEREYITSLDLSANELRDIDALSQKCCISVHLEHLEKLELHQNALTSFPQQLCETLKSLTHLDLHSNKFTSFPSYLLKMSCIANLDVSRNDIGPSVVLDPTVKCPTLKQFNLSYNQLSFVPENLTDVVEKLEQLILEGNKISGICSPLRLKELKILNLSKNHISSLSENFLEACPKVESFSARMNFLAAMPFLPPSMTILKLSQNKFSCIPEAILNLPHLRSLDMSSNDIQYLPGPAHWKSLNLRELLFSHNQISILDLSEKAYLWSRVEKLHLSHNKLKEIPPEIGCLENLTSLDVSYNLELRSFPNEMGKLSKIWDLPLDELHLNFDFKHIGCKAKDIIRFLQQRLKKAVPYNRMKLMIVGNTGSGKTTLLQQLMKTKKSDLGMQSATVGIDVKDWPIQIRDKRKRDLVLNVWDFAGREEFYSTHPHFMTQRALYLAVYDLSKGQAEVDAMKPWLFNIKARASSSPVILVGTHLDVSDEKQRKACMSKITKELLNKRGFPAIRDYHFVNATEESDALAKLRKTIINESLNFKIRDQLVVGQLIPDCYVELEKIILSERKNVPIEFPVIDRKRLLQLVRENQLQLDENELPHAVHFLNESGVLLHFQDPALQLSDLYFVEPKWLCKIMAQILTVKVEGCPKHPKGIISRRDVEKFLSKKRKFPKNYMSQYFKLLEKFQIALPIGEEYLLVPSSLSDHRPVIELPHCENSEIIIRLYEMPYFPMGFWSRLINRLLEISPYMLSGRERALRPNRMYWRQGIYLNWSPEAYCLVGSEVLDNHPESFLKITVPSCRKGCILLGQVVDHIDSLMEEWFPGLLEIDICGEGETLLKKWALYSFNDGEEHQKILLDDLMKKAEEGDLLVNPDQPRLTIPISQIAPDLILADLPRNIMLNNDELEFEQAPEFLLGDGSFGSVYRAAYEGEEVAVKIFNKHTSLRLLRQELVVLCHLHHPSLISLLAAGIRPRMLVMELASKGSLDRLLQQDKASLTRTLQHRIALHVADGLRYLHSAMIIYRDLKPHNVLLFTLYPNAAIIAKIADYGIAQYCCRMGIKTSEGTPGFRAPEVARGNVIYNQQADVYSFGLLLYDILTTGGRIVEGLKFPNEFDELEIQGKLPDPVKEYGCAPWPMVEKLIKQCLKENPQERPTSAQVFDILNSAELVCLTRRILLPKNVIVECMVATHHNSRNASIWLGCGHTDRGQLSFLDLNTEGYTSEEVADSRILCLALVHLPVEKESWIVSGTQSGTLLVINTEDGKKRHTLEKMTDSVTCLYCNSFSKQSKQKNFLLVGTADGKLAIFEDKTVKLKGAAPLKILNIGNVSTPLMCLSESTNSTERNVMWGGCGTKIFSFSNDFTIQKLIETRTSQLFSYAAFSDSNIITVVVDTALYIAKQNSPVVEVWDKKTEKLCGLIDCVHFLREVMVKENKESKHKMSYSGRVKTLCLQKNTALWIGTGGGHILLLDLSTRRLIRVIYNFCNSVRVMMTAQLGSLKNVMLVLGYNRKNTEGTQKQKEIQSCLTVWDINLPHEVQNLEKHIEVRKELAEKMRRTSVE

This experiment addresses T1, LRRK2 kinase in SH-SY5Y cells over-expressing recombinant full length LRRK2 (Homo sapiens, UniProt Q5S007).
T1 construct: A BacMam virus expressing full length recombinant LRRK2 was purchased from Invitrogen; host or cells: SH-SY5Y human neuroblastoma cells transduced with BacMam LRRK2 virus
The experiment is described as follows: Recombinant cellular LRRK2 AlphaScreen assay (LRRK2 Ser935 phosphorylation). Type of experiment: cell-based. The settings on record: 60 min. The text has this:
b. Recombinant Cellular LRRK2 AlphaScreen Assay
To determine the activity of compounds against LRRK2 kinase in cells, the observed LRRK2 kinase-dependent modulation of LRRK2 Ser 935 phosphorylation (Dzamko et al., 2010, Biochem. J. 430: 405-413) was utilized to develop a quantitative 384 well plate-based immunoassay of LRRK2 Ser935 phosphorylation in the human neuroblastoma cell line SH-SY5Y, engineered to over-express recombinant full length LRRK2 protein.
A BacMam virus expressing full length recombinant LRRK2 was purchased from Invitrogen and amplified by inoculation of SF-9 cells at MOI 0.3 for 4-5 days in Sf-900 III SFM medium supplemented with 3% fetal bovine serum. Infected cell cultures were then centrifuged at 2000 g for 20 minutes, viral supernatant titer determined by anti-gp64 plaque assay and stored at 4° C.
Affinity-purified anti-phospho LRRK2 Ser935 sheep polyclonal antibody (Dzamko et al., 2010, Biochem. J. 430: 405-413) was biotinylated by standard methods (PerkinElmer). Anti-LRRK2 rabbit polyclonal antibody was purchased from Novus Biologicals. AlphaScreen Protein A IgG Kit (including acceptor and donor beads) was purchased from Perkin Elmer.
SH-SY5Y cells were grown in DMEM/F12 medium with 10% dialysed fetal bovine serum and harvested by treatment with 0.5% trypsin-EDTA for 5 minutes at 37° C. followed by centrifugation at 1000 rpm for 4 minutes. The cell pellet was resuspended in Opti-MEM reduced serum media (Invitrogen) at 200,000 cells/ml and mixed with the BacMam LRRK2 virus at M01=50. 50 μl cell solutions were then dispensed to each well of a 384-well plate and incubated at 37° C., 5% CO2 for 24 hours.
Compounds were prepared at 10× final assay concentration as 11 point 1 in 4 serial I dilutions in Opti-MEM reduced serum medium (Invitrogen 31985070) containing 1% DMSO. On the day of assay, 5.5 μl of the compound solutions were transferred from the compound plate to the cell assay plate to achieve a top final assay concentration of 10 uM. DMSO (0.1% final assay concentration) was added to column 6 and 2-(benzyloxy)-5-methyl-4-(1-methyl-1H-pyrazol-4-yl)-N-(pyridin-3-yl)benzamide (2 μM final assay concentration) was added to column 18 to serve as 0% and 100% inhibition controls, respectively.
Cells were incubated at 37° C., 5% CO2 for 60 minutes. The medium was then removed and cells lysed by addition of 20 μl of cell lysis buffer (Cell Signaling Technology) and incubation at 4° C. for 20 minutes. 10 μl of antibody/acceptor bead mix [(1/1000 biotinylated-pS935 LRRK2 antibody, 1/1000 total-LRRK2 antibody, 1/100 Acceptor beads in AlphaScreen detection buffer (25 mM Hepes (pH 7.4), 0.5% Triton X-100, 1 mg/ml Dextran 500 and 0.1% BSA)] was then added to each well and plates incubated for 2 hours at ambient temperature in the dark. 10 μl of donor beads solution (1/33.3 donor beads in AlphaScreen detection buffer) was then added to each well. Following incubation for a further 2 hours at ambient temperature in the dark, plates were read on an EnVision™ plate reader at emission 520-620 nm with excitation 680 nm. Dose response curve data was based on a sigmoidal dose-response model.
On the technique in general: Alpha assays give light when donor and acceptor beads are brought close together.
Broadly, the IC50 is the concentration that gives 50% inhibition. For `Cc1c2c(nn1C1CCC(N3CCC(F)C3)CC1)OCCCNc1nc(ncc1Cl)N2` (single isomer, unassigned) [E152, 14-Chloro-5-[4-(3-fluoropyrrolidin-1-yl)cyclohexyl]-4-methyl-8-oxa-2,5,6,12,16,17-hexaazatricyclo[11.3.1. 0^3,7]heptadeca-1(16),3,6,13(17),14-pentaene], the half-inhibitory concentration (IC50) is at most 100 nM.
As for `Cc1c2c(nn1C(C)(C)C#N)OCC(C)C(C)Nc1nc(ncc1Cl)N2` (single isomer, unassigned) [E165, 2-{14-Chloro-4,10,11-trimethyl-8-oxa-2,5,6, 12,16,17-hexaazatricyclo[11.3.1.0^3,7]heptadeca-1(16),3,6, 13(17),14-pentaen-5-yl}-2-methylpropanenitrile], the IC50 was at most 100 nM.
On to `Cc1c2c(nn1C1CCC(N3C[C@@H]4C[C@H]3CO4)CC1)OCCCNc1nc(ncc1Cl)N2` (single isomer, unassigned) [E50], for which the IC50 is at most 100 nM.
As for `Cc1c2c(nn1C1CCC(F)(F)CC1)OCCCNc1nc(ncc1Cl)N2` [E142, 14-Chloro-5-(4,4-difluorocyclohexyl)-4-methyl-8-oxa-2,5,6,12, 16,17-hexaazatricyclo[11.3.1.0^3,7]heptadeca-1(16),3,6,13(17),14-pentaene], the IC50 was at most 100 nM.
Regarding `Cc1c2c(nn1C1CCCOC1)OCCCNc1nc(ncc1Cl)N2` (single isomer, unassigned) [E10, 14-Chloro-4-methyl-5-(oxan-3-yl)-8-oxa-2,5,6,12,16,17-hexaaza tricyclo-[11.3.1.0^3,7]heptadeca-1(16),3,6,13(17),14-pentaene], the IC50 was at most 100 nM.
As to `Cc1c2c(nn1C1CN(C3COC3)CCC1(F)F)OCCCNc1nc(ncc1Cl)N2` (single isomer, unassigned) [E408, 14-Chloro-5-[4,4-difluoro-1-(oxetan-3-yl)piperidin-3-yl]-4-methyl-8-oxa-2,5,6,12,16,17-hexaazatricyclo[11.3.1.0^3,7]heptadeca-1(16),3,6,13(17),14-pentaene], the IC50 was at most 100 nM.
For the compound `CC1CCOc2nn(C3CCOCC3)c(Cl)c2Nc2ncc(Cl)c(n2)N1` (stereo not drawn) [E343, 4,14-Dichloro-11-methyl-5-(oxan-4-yl)-8-oxa-2,5,6,12,16,17-hexaazatricyclo[11.3.1.0^3,7]heptadeca-1(16),3,6,13(17),14-pentaene], the IC50 is at most 100 nM.
As to `COC1CNc2nc(ncc2Cl)Nc2c(nn(C3CCOCC3)c2Cl)OC1` (stereo not drawn) [E339, 4,14-Dichloro-10-methoxy-5-(oxan-4-yl)-8-oxa-2,5,6,12,16,17-hexaazatricyclo[11.3.1.0^3,7]heptadeca-1(16),3,6,13(17),14-pentaene], the IC50 is at most 100 nM.
`Cc1c2c(nn1C1(C)CCOCC1)OCCCNc1nc(ncc1Cl)N2` [E436, 14-Chloro-4-methyl-5-(4-methyloxan-4-yl)-8-oxa-2,5,6,12,16,17-hexaazatricyclo[11.3.1.0^3,7]heptadeca-1(16),3,6,13(17),14-pentaene]: the IC50 was at most 100 nM.
As to `Cc1c2c(nn1C1CCOCC1)OCCCNc1nc(ncc1C(C)(C)C)N2` [E441, 14-tert-Butyl-4-methyl-5-(oxan-4-yl)-8-oxa-2,5,6,12,16,17-hexaazatricyclo[11.3.1.0^3,7]heptadeca-1(16),3,6,13(17),14-pentaene], the IC50 was above 10000 nM.
Take `Cc1c2c(nn1C1CC3(COC3)C1)OCCCNc1nc(ncc1Cl)N2` [E300, 14-Chloro-4-methyl-5-{2-oxaspiro[3.3]heptan-6-yl}-8-oxa-2,5,6,12,16,17-hexaazatricyclo[11.3.1.0^3,7]heptadeca-1(16),3,6,13(17),14-pentaene]: the IC50 was at most 100 nM.
With `Cc1c2c(nn1C1CC3CCC(C1)O3)OCCC(C)Nc1nc(ncc1Cl)N2` (single isomer, unassigned) [E249, 14-Chloro-4,11-dimethyl-5-{8-oxabicyclo[3.2.1]octan-3-yl}-8-oxa-2,5,6,12,16,17-hexaazatricyclo[11.3.1.0^3,7] heptadeca-1(16),3,6,13(17),14-pentaene], the IC50 was at most 100 nM.
On to `Cc1c2c(nn1C1CCOCC1)OCCCNc1cc(ncc1C(F)(F)F)N2` [E125, 4-Methyl-5-(oxan-4-yl)-14-(trifluoromethyl)-8-oxa-2,5,6,12,16-pentaazatricyclo[11.3.1.0^3,7]heptadeca-1(16),3,6,13(17),14-pentaene], for which the half-inhibitory concentration (IC50) is at most 100 nM.
`Cc1c2c(nn1C(C)(C)C(N)=O)OCCC(C)Nc1nc(ncc1Cl)N2` (single isomer, unassigned) [E42, 2-{14-chloro-4,11-dimethyl-8-oxa-2,5,6,12,16,17-hexaazatricyclo [11.3.1.0^3,7]heptadeca-1(16),3,6,13(17),14-pentaen-5-yl}-2-methylpropanamide]: the IC50 is at most 100 nM.
In the case of `Cc1c2c(nn1C1CCC(O)CC1)OCCC(C)Nc1nc(ncc1Cl)N2` (single isomer, unassigned) [E94, 4-{14-chloro-4,11-dimethyl-8-oxa-2,5,6,12,16,17-hexaazatricyclo [11.3.1.0^3,7]heptadeca-1(16),3,6,13(17),14-pentaen-5-yl}cyclohexan-1-ol], the 50% inhibitory concentration (IC50) was at most 100 nM.
Regarding `COCC1CCOc2nn(C3CCOCC3)c(C)c2Nc2ncc(Br)c(n2)N1` (single isomer, unassigned) [E168, 14-Bromo-11-(methoxymethyl)-4-methyl-5-(oxan-4-yl)-8-oxa-2,5,6,12,16,17-hexaazatricyclo[11.3.1.0^3,7] heptadeca-1(16),3,6,13(17),14-pentaene], the IC50 is at most 100 nM.
Consider `Cc1c2c(nn1C1CCOC1)OCCCNc1nc(ncc1C(F)(F)F)N2` (stereo not drawn) [E126, 4-Methyl-5-(oxolan-3-yl)-14-(trifluoromethyl)-8-oxa-2,5,6,12,16, 17-hexaazatricyclo[11.3.1.0^3,7]heptadeca-1(16),3,6,13(17),14-pentaene], for which the IC50 was at most 100 nM.
Take `Cc1c2c(nn1C1CCC(N3CCOCC3)CC1)OCCC(C)Nc1nc(ncc1Cl)N2` (single isomer, unassigned) [E150]: the IC50 was at most 100 nM.
`Cc1c2c(nn1C1CCOC(C)C1)OCCCNc1nc(ncc1Cl)N2` (single isomer, unassigned) [E202, 14-Chloro-4-methyl-5-(2-methyloxan-4-yl)-8-oxa-2,5,6,12,16,17-hexaazatricyclo[11.3.1.0^3,7]heptadeca-1(16),3,6,13(17),14-pentaene]: the IC50 is at most 100 nM.
To `COC1CCCC(n2nc3c(c2C)Nc2ncc(Cl)c(n2)NCCCO3)C1` (single isomer, unassigned) [E178, 14-Chloro-5-(3-methoxycyclohexyl)-4-methyl-8-oxa-2,5,6,12,16,17-hexaazatricyclo[11.3.1.0^3,7]heptadeca-1(16),3,6,13(17),14-pentaene] belongs at most 100 nM.
With `COC1CNc2nc(ncc2Cl)Nc2c(nn(CC(F)(F)F)c2C)OC1` (single isomer, unassigned) [E269, 14-Chloro-10-methoxy-4-methyl-5-(2,2,2-trifluoroethyl)-8-oxa-2,5,6,12,16,17-hexaazatricyclo[11.3.1.0^3,7] heptadeca-1(16),3,6,13 (17),14-pentaene] the figure was at most 100 nM; with `Cc1c2c(nn1C1CC(C)OC(C)C1)OCCC(C)Nc1nc(ncc1Cl)N2` (single isomer, unassigned) [E194, 14-Chloro-5-(2,6-dimethyloxan-4-yl)-4,11-dimethyl-8-oxa-2,5,6,12,16,17-hexaazatricyclo[11.3.1.0^3,7] heptadeca-1(16),3,6,13(17),14-pentaene], at most 100 nM; with `Cc1c2c(nn1C1CCOCC1(F)F)OCC[C@@H](C)Nc1nc(ncc1Cl)N2` (single isomer, unassigned) [E392], at most 100 nM.
For the compound `COC1CCCC(n2nc3c(c2C)Nc2ncc(Cl)c(n2)NC(C)CCO3)C1` (single isomer, unassigned) [E170, 14-Chloro-5-(3-methoxycyclohexyl)-4,11-dimethyl-8-oxa-2,5,6,12,16,17-hexaazatricyclo[11.3.1.0^3,7] heptadeca-1(16),3,6,13(17),14-pentaene], the IC50 is at most 100 nM.
